From patent US9687480B2, “Chiral 1-(4-methylphenylmethyl)-5-oxo-{N-[(3-t-butoxycarbonyl-aminomethyl)]-piperidin-1-yl)-pyrrolidine as inhibitors of collagen induced platelet activation and adhesion” (Council of Scientific & Industrial Research, priority 2011, dated 2017)

Assays:
mouse platelets = test: Platelet adhesion over collagen matrix (mice, ex vivo); assay type: in vivo; settings: oral route, compound 6 10, 30, 100 μM/kg, aspirin 100 μM/kg
Excerpt: FIG. 4b: Adhesion of mouse platelets on collagen matrix as observed under fluorescence microscope 40× (ex vivo method). Different pictures show the different treatment performed. Washed murine platelets (2×10^6/ml) were obtained from animals pretreated with the compound (compound 6) (different doses) and seeded on BSA or Collagen (fibrillar) coated cover slips (A, B). Platelets from untreated animals were allowed to adhere on uncoated and BSA coated cover slip respectively to delineate the possibility of non specific binding. C, D. control platelets were adhered on collagen coated cover slip (control). E. F&G. Platelets obtained from animals pre-treated with compound 6 (10 μM/kg, 30 μM/kg & 100 μM/kg) respectively were adhered on collagen coated cover slip. H, I. Platelets from Aspirin (100 μM/kg) & Clopidogrel treated (100 μM/kg) animals resp. (standard Drugs) and adhered on collagen coated cover slip (n=5, 5 animals/group/experiment).

[1] = tested on: collagen stimulated platelets; test: Immunoblotting: tyrosine phosphorylation of platelet proteins after collagen stimulation; assay type: cell-based, human; settings: 10-100 μM
Protocol: Platelet rich plasma (2×10^8/ml) was pre-incubated with test compound (10-100 μM) or the isovolumetric solvent control (0.5% DMSO) for 5 minutes, followed by the addition of collagen, to trigger platelet activation. The reaction was stopped by the addition of ice cold stop buffer (5 mM EDTA, 5 mM EGTA) and the suspensions were centrifuged at 800×g for 10 minutes and then immediately resuspended in 300 μl of lysis buffer (50 mM HEPES, 5 mM EDTA, 50 mM NaCl, 1% Triton X-100, 10 μg/ml aprotinin, 1 mM PMSF, 10 μg/ml leupeptin, 10 mM NaF, 1 mM sodium orthovanadate, and 5 mM sodium pyrophosphate) (Ezumi Y. Shindoh K, Tsuji M, and Takayama H Physical and Functional Association of the Src Family Kinases Fyn and Lyn with the Collagen Receptor Glycoprotein VI-Fc Receptorg Chain Complex on Human Platelets. J. Exp. Med. 1998; 188: 287-[…]). Lysates were centrifuged at 12,000×g for 5 minutes, after which the supernatants were dissolved in Laemmeli sample buffer (Laemmeli, 1970). […] Immunoreactive bands were detected by chemiluminescence using the ECL-enhanced chemiluminescence system (Inoue K, Ozaki Y, Satoh K, u Y, Yatomi Y, Shin Y and Morita T Signal Transduction Pathways Mediated by Glycoprotein Ia/IIa in Human Platelets: Comparison with those of Glycoprotein VI. Biochem. I and Biophys. Res. Comm. 1999; 256: 114-120).

human platelets = test: Intracellular calcium mobilization in Fura-2 loaded platelets stimulated by collagen; assay type: cell-based; settings: Fura-2 loaded human platelets, collagen 5 μg/ml
Protocol: Ca^+2 concentration ([Ca^+2]i) were monitored by Fura-2AM fluorescence in the platelets (Fowler C J. Tiger G Calibration of Fura-2 signals introduces errors into measurement of thrombin-stimulated calcium mobilization in human platelets. Clinica Chimica Acta. 1997; 265:247-261). Human PRP was incubated with 5 μM Fura-2 AM (Sigma) for 60 minutes at 37° C. After 2 washes with the wash buffer, the platelets were resuspended at 2×10^6 cells/mL with the Tyrode's-HEPES buffer. After incubating with various concentrations of compound for 5 minutes, the platelets were stimulated with collagen (5 μg/mL)(the concentration of collagen was varied in accordance with cell number). The Fura-2 fluorescence was measured for 5 minutes at an excitation wavelength of 340/380 nm and emission wavelength of 500 nm (Yoshida S., Sudo T., Niimi M., Tao L., Sun B., Kambayashi J., Watanabe H., Luo E., and Matsuoka H. Inhibition of collagen-induced platelet aggregation by anopheline antiplatelet protein, a saliva protein from a malaria vector mosquito. Blood 2007; 111: 2007-201) using a fluorescence spectrophotometer (VARIAN, Cary Eclipse).

[2] = tested on: mice platelet rich plasma; test: Platelet aggregation (mice, ex vivo) induced by collagen; assay type: in vivo; settings: oral route
Protocol: The reaction was allowed to proceed for at least 5 min, and the extent of aggregation was expressed in light-transmission units (Ivandic B T, Schlick P, Starltz P, Kurz K, Katas H A, Giannitsis E. Determination of clopidogrel resistance by whole blood platelet aggregometry and inhibitors of the P2Y12 receptor. Clinical Chemistry 2006: 52:383-88).

For Cc1ccc(CN2C(=O)CC[C@H]2C(=O)N2CCC[C@@H](CNC(=O)OC(C)(C)C)C2)cc1 [Compound 6], the “platelet adhesion (ex vivo) over collagen surface” value (mouse platelets) was “dose dependent inhibition”, the “tyrosine phosphorylation of platelet proteins” value [1] was “attenuated the tyrosine phosphorylation” and the “calcium mobilization ([Ca2+]i) during collagen stimulation” value (human platelets) was “concentration dependent inhibition”. For the same compound, the “collagen induced platelet aggregation (ex vivo)” value [2] was “dose dependent inhibition”.
